#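 Values below derive from 48-hour exposures of cells grown in 96-well plates, with endpoints linearly interpolated between the two concentrations bracketing the appropriate inhibition level. TGI denotes the concentration required for complete inhibition of growth.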
# What was measured:
# Experiment in all cases: growth of human tumour cells (NCI), 48 h
# [1] = tested on: UACC-62 melanoma
# [2] = tested on: SK-MEL-5 melanoma
# [3] = tested on: EKVX NSCLC
SMILES,TGI [1] [µM],TGI [2] [µM],TGI [3] [µM]
Cc1ccc(S(=O)(=O)Nn2c(-c3ccccc3)c(C#N)c(-c3ccc(Cl)cc3)c(C#N)c2=O)cc1,33,29.3,
O=C1CCC(=O)N1CNc1ccc2c(c1)Sc1ccccc1O2,> 100,70.1,75.4
COc1ccc(NC(=O)C(=O)C(CC2C(=O)NC(=S)NC2=O)C(=O)c2ccc3ccccc3c2)c([N+](=O)[O-])c1 (stereo unspecified),> 100,> 100,> 100
COc1ccc(-c2oc3c(CC(=O)O)cccc3c(=O)c2OC)cc1,> 100,> 100,> 100
COc1cccc2c1C(=O)C(=O)c1c-2oc(=O)c2cc(C)cc(OC)c12,> 75,35.6,> 75
Cc1ccc(SCC(OCn2cnc3c(N)ncnc32)[C@H](C)F)cc1 (stereo partly specified),> 100,> 100,
O=S(=O)(O)c1cc(S(=O)(=O)O)c2c(N=Nc3cccc4ccccc34)c(O)ccc2c1,> 100,> 100,> 100
O=C(O)C(Cc1ccc(O)cn1)NC(=O)C(F)(F)F (stereo unspecified),,> 100,> 100
Cc1cc(S(=O)(=O)Nc2nc(N)n(-c3cnc4ccccc4n3)n2)c(S)cc1Cl,> 100,> 100,> 100
COc1ccccc1C1C2=C(COC2=O)OC(C)(C)Oc2cc3c(cc21)OCO3 (stereo unspecified),> 25.4,21,26.7
CC12CN(CC[N+](C)(C)C)CC1(C)C1CCC2O1 (stereo unspecified),> 100,> 100,> 100
O=C(NNC(=S)Nc1ccccc1)C12CC3CC(CC(C3)C1)C2,> 100,42.6,> 100
COC(=O)CCc1ccc2c(c1)CCC2,> 100,> 100,
COc1ccc(C)c2c1N[C@](C)([C@]1(C)Nc3c(OC)ccc(C)c3C1=O)C2=O,> 100,> 100,> 100
COC(C)(C)C(O)C(O)C[C@H](C)C1CC=C2C1(C)CCC1[C@@]3(C)CCC(OC(C)=O)C(C)(C)C3CC(OC3OC(COC(C)=O)C(O)C(O)C3O)[C@@]21C (stereo partly specified),> 10,4.38,> 10
COC(=O)c1cc(NC2OCC(OC(C)=O)C(OC(C)=O)C2OC(C)=O)nc(SC)c1C(=O)OC (stereo unspecified),> 100,> 100,> 100
Cc1c(O)c(OC2OC(CO)C(O)C(O)C2O)cc2c1CC[C@@H]1C2(C)C(=O)C[C@]2(C)[C@@H]([C@@](C)(O)C(O)/C=C/C(C)(C)O)[C@H](O)C[C@@]12C (stereo partly specified),> 100,> 100,> 100
CCCCCCCC1c2cc3[nH]c(cc4nc(cc5[nH]c(cc(n2)[C@@]1(C)CC(=O)N(C)C)c(C)c5CCC(=O)O)C(CCC(=O)O)=C4C)cc3C (stereo partly specified),33.1,51,> 100
COC(=O)c1cc(Br)c(C(=O)C(Cl)(Cl)Cl)[nH]1,> 100,> 100,> 100
CCCCCCCC/C=C\CCCCCCCCNc1ccn(C2OC(COP(=O)(O)OC3CC(n4cc(F)c(=O)[nH]c4=O)OC3CO)C(O)C2O)c(=O)n1 (stereo unspecified),> 95,> 100,> 100
Cc1ccc2c(c1)C(=O)/C(=C1/CCc3ccc(C)cc31)C2,> 100,> 100,> 100

SMILES,TGI [1] [µM],TGI [2] [µM],TGI [3] [µM]
CCCCCCCCCCCCCCCCOP(=O)(O)OP(=O)(O)OCC1OC(n2ccc(N)nc2=O)CC1O (stereo unspecified),> 100,> 100,> 100
O=C1c2ccccc2C(=O)c2c(OCC3CO3)ccc(OCC3CO3)c21 (stereo unspecified),7.95,15.5,35.5
O=C(NO)c1cccc(OCc2ccc(Br)cc2)c1,20.6,> 27.2,> 79.3
CC(=O)O[C@H]1C(=O)[C@@]2(C)C(C(OC(=O)c3ccccc3)[C@]3(O)CC(OC(=O)C(O)C(NC(=O)c4ccccc4)c4ccc(F)cc4)C(C)=C1C3(C)C)[C@]1(OC(C)=O)CO[C@@H]1C[C@@H]2O (stereo partly specified),> 10,> 3.32,> 10
CC(C)=CCNc1ncnc2c1ncn2CCC(=O)OC(C)(C)C,> 100,70,
Cc1cc(Cl)nc(NC(=O)CSc2ccc(Cl)cc2)n1,> 100,> 100,> 100
N#Cc1c(C#N)c(-c2cccc([N+](=O)[O-])c2)n(-c2ccccc2)c1N,> 100,> 100,> 100
CN(C)c1ccc(N=Nc2cccc3ccoc23)cc1,> 100,> 100,> 100
CCOC(=O)C(NNS(=O)(=O)c1ccc(C)cc1)S(=O)(=O)C(F)(F)C(F)(F)C(F)(F)C(F)(F)F (stereo unspecified),> 100,> 100,> 100
CC(=O)N1NC(c2ccccc2)=CC(=O)/C1=C/C(=O)c1ccccc1,> 100,> 100,> 100
O=C1O/C(=C\c2ccc(O)c(Br)c2)C(c2ccc(O)cc2)=C1Cl,> 100,53.5,> 100
COC(=O)c1cc(C)ccc1/C=C1\Cc2cc(C)c(C)cc2C1=O,> 100,> 100,> 100
Cn1c(=O)n(-c2c3ccccc3c(Cl)c3ccccc23)n(C(C)(C)C)c1=O,> 100,> 100,> 100
CCCSc1cc(Cl)c(C)cc1S(=O)(=O)n1cc[nH]c1=O,> 100,> 100,> 100
CCOC(=O)CSc1nc(-c2ccc(OC)cc2)c(C#N)c(=O)[nH]1,> 100,> 100,> 100
C[C@]12CC[C@@H]3c4ccc(OC(=O)c5ccccc5)cc4CC[C@H]3[C@@H]1CCC2OC(=O)c1cccc2c(=O)c3ccccc3[nH]c12 (stereo partly specified),31.3,57.9,30.4
COc1ccc(C2Oc3c(cccc3OC)C=C2[N+](=O)[O-])cc1OC (stereo unspecified),17.9,16.1,> 100
O=C(O)c1ccc(Nc2ccnc3cc(Cl)ccc23)cc1O,> 100,> 100,> 100
COC1Cc2c(C)c(OC(C)=O)c3cccnc3c2O1 (stereo unspecified),29,29.2,30.6
COC(=O)c1ccccc1C1CN=NC12Cc1c(C)cc(C)cc1C2=O (stereo unspecified),> 100,> 100,> 100
CCOC(=O)c1sc2nc(SC)nc(Nc3ccc4c(c3)OCCCO4)c2c1N,> 100,18.7,> 100
